Consider 9 molecules from US7563789B2, “1-Adamantyl chalcones for the treatment of proliferative disorders” (priority 2002, dated 2009).

Each structure is given as a SMILES string. Where two headings read alike, the source gives them in different places.

Data set [1] deals with MDA-MB435 (ER-negative) human breast cancer cell line. Nature of the data set: Dose response / cell viability (LC50) in MDA-MB435 breast cancer cells. The procedure:
1. […] Biological activity was determined by relative LC50 values of these agents.
(§1) 2. The compounds in series I, II, III, and IV were examined against two different types of breast cancer cell lines which included estrogen receptor positive (MCF-7) and estrogen receptor negative (MDA-MB435) cell lines.
(§2) 3. Toxicity of the compounds for normal breast epithelial cells were examined by comparing LC50 values in normal breast epithelial cell line (MCF-10) against LC50 values in cancer cell lines. LC50 is the concentration that is lethal to 50 percent of the cells. LC50 values were estimated from a dose response graph.
(§3) Two human breast cancers cell lines (MCF-7 and MDA-MB435) and a normal breast epithelial cell line (MCF-10) were obtained from ATCC (American Type Culture Collection) to test against the series of compounds and the data were examined for the compounds' relative antiproliferation profiles. All of these cell lines were derived from epithelial tissue. These cell lines were selected because they allowed our laboratory to investigate the effects of the compounds in: 1) breast neoplasms whose growth is stimulated by the presence of estrogen, MCF-7 (ER-positive); 2) Breast neoplasms whose growth is not stimulated by estrogen MDA-MB435 (ER-negative); and 3) A non-cancer cell line (MCF-10) to compare relative toxicities of the compounds.

Data set [2] relates to MCF-7 (ER-positive) human breast cancer cell line. Nature of the data set: cells. The method, then: 1. A dose response curve for compounds, series I, II, III, IV, over a concentration range of 1 mM to 1 nM was prepared in order to detect the doses where possible biological activity might exist. Biological activity was determined by relative LC50 values of these agents.
as §1, §2, §3

Data set [3] deals with normal breast epithelial cell line MCF-10. Nature of the data set: Toxicity for normal breast epithelial cells. The following applies: MCF-10 cells; highest concentration tested (1 mM); average values. Format: cell-based. The procedure:
3. […] LC50 values were estimated from a dose response graph.
The relative toxicity of the synthesized compounds (47a-e) against normal breast cells was studied by exposing normal breast epithelial cell line MCF-10 to our synthesized compounds in concentration ranges from 1 nM to 1 mM. These cells were likewise exposed to equivalent concentrations of Tamoxifen, Genestein, and Doxyrubicin. […] At concentrations lower than 10^−7 M, these compounds appeared to enhance the viability of cells.

Data set [4] concerns TGF stimulated growth of MDA-MB 435 cells.
Protocol: 4. The possible mechanism of action of these compounds was explored by examining the ability of these agents to reverse growth factor stimulated proliferation. The ability of these compounds to attenuate EGF and TGF stimulated growth was tested.
(§4) Both MCF-7 and MDA-MB435 cells contain EGF-R and TGF-R. In an effort to examine the role of EGF-R and TGF-R in the proliferation of MCF-7 and MDA-MB435, these cells were stimulated to growth stimulatory at 50 percent (GS50) values.
(§5) In all cases 10 ml of growth factor was administered at a concentration of 1 ng/ml.
For data set [5], the system named is TGF-α stimulated growth of MCF-7 cells. Nature of the data set: Reversal of TGF-α stimulated growth of MCF-7 cells. Format: cell-based.
Protocol: (§6) The possible mechanism of action of these compounds was explored by examining the ability of these agents to reverse growth factor stimulated proliferation. The ability of these compounds to attenuate EGF and TGF stimulated growth was tested.
as §4, §5
Data set [6] concerns EGF stimulated growth of MDA-MB435 cells. Nature of the data set: Reversal of EGF stimulated growth of MDA-MB435 cells. It counts as cell-based. Conditions: EGF (1 ng/ml) serum and non-serum stimulated growth of MDA-MB435 cells; 10^−9 to 10^−3 M.
Protocol: as §6, §4, §5
Data set [7] relates to EGF stimulated growth of MCF-7 cells. Format: cell-based, human.
Protocol: as §6, §4, §5
Data set [8] concerns Normal human mammary epithelial (HME) cells stimulated by EGF. The following applies: read-out: concentration at which cell growth is inhibited by 50% (IC50); cited from earlier work.
[9] abbreviates: Homo sapiens, MCF7, read-out: LC50.

Regarding `CC(C)c1ccc(/C=C/C(=O)C23CC4CC(CC(C4)C2)C3)cc1` [Compound 43f], the “effect on cell viability (in words)” value in data set [1] (MDA-MB435 cells) is given as “altered cell viability only at much higher concentrations than required for MCF-7 cells”. For the same molecule, in data set [2], the “decrease of cell viability” value is given as 20%.
`O=C(/C=C/c1ccccn1)C12CC3CC(CC(C3)C1)C2` [Compound 47a]: in data set [3], the “% cell viability” value was determined as 103%. For the same molecule, the “concentration reversing stimulated growth back to control values” was 10 µM in data set [4] (TGF (1 ng/ml) non-serum stimulated growth of MDA-MB 435 cells), 50 µM in data set [4] (TGF (1 ng/ml) serum stimulated growth of MDA-MB 435 cells) and 10 µM in data set [7] (EGF-serum stimulated growth of MCF-7 cells). Besides, the CC50 in data set [5] (MCF-7, TGF 1 ng/ml, non-serum stimulated, reversal value, read-out: LC50 Data for Administered Drug, Non-Serum Stimulated) was 50 µM. Besides, the “reversal of stimulated growth (in words)” value in data set [5] (TGF-α serum and non-serum stimulated growth of MCF-7 cells, 10^−9 to 10^−3 M) was “neither TGF-α serum stimulated nor non-serum stimulated growth of MCF-7 cells significantly reversed”; in data set [6], “Neither EGF (1 ng/ml) serum nor non-serum stimulated growth of MDA-MB435 cells was reversed”. Moreover, the IC50 in data set [7] (EGF-non serum stimulated growth of MCF-7 cells, read-out: IC50, reversal of stimulated growth back to control values) was 50 µM.
Regarding `O=C(/C=C/c1cccnc1)C12CC3CC(CC(C3)C1)C2` [Compound 47b], the “% cell viability” value in data set [3] worked out at 124%. This molecule also showed a CC50 in data set [1] of 5 µM.
Turning to `O=C(/C=C/c1ccncc1)C12CC3CC(CC(C3)C1)C2` [Compound 47c], the “% cell viability” value in data set [3] amounted to 102%.
For `Cc1cccc(/C=C/C(=O)C23CC4CC(CC(C4)C2)C3)n1` [Compound 47d], the “% cell viability” value in data set [3] was determined as 94%.
`O=C(/C=C/c1ccnc2ccccc12)C12CC3CC(CC(C3)C1)C2` [Compound 47e]: the “% cell viability” value in data set [3] was determined as 98%. The same molecule displayed a CC50 in data set [2] of 50 µM. The “LC50 increase over tamoxifen” value in data set [2] (MCF-7 cells, versus tamoxifen) is reported as 10 fold.
With `COc1cccc2c1C(=O)c1c(O)c3c(c(O)c1C2=O)C[C@@](O)(C(=O)CO)C[C@@H]3O[C@H]1C[C@H](N)[C@H](O)[C@H](C)O1` [Doxyrubicin], the CC50 in data set [2] (setting [9]) was determined as 500 µM.
In the case of `O=c1c(-c2ccc(O)cc2)coc2cc(O)cc(O)c12` [Genestein, Genistein], the CC50 in data set [1] (Homo sapiens, MDA-MB-435, read-out: LC50) was 5000 µM. The “LC50 (in words)” value in data set [1] (MDA-MB435 cells, in the concentration range measured (1 mM to 1 nM)) is “no LC50 was obtained”. The IC50 in data set [8] was 1 µM.
Consider `CC/C(=C(\c1ccccc1)c1ccc(OCCN(C)C)cc1)c1ccccc1` [Tamoxifen], for which the “effect on cell viability (in words)” value in data set [1] (MDA-MB435 cells) is “ineffective at lower concentrations”. Also, in data set [2] (setting [9]), the CC50 worked out at 500 µM.
